Experiment [1] deals with BD1 domains (BRD2-BD1, BRD3-BD1, BRD4-BD1). Briefly: SPR binding, stated for the BD1 domains together. Details: species or system human. On the procedure: We next assessed the ability of each of the three lead peptides to bind BRD3-BD1. […] To assess selectivity for other BET BDs, we used SPR to determine the binding affinity of each peptide toward the remaining BDs from BRD2, BRD3, and BRD4 (Fig. 1B). […]
Peptides were synthesised as C-terminal amides using standard fluorenylmethyloxycarbonyl (Fmoc)-strategy solid-phase chemistry using a Syro I automated synthesiser (Biotage) and NovaPEG Rink Amide resin (Novabiochem). Couplings were performed with HBTU/HOBt (1:1) and 6 equivalents of each amino acid. Double couplings were performed for arginine residues.
Following the final amino acid coupling reaction, the Fmoc group was removed and resin incubated with N-(chloroacetoxy)succinimide (0.2 M in DMF, 1 h, RT). Resin was washed with DMF (5 times) and DCM (5 times) and dried in vacuo.
Linear peptides were cleaved from the resin by incubation (3 h, RT) with a trifluoroacetic acid (TFA) cleavage cocktail (TFA/2,2’-(ethylenedioxy)diethanethiol/triisopropyl silane/H2O (92.5:2.5:2.5:2.5)) before filtration, concentration in vacuo and precipitation with ice-cold diethyl ether. Crude peptides were washed with diethyl ether (5 times), dried and resuspended in DMSO. The pH was raised to >8 using triethylamine to allow cyclisation. Following incubation (1 h, RT), peptides were re-acidified with TFA for purification.
Crude peptides were purified by reverse-phase high-performance liquid chromatography using a Chromolith Prep column (Merck) on a Prominence LC-20AP system (Shimadzu) (Solvent A: 0.1% TFA in H2O, Solvent B: 0.1% TFA in acetonitrile) to >95% purity as determined by mass spectrometry (Fig. S17). Purified peptides were reconstituted in DMSO and concentrations determined from their absorbance at 280 nm in 5% DMSO using predicted extinction coefficients.
Surface plasmon resonance (SPR)
Measurements were conducted on a T200 or S200 (GE Healthcare) and data analysed using the Biacore Insight Evaluation Software. Experiments were performed at 4 °C in single cycle kinetics mode. Biotinylated BET bromodomains were immobilised on a CAP chip (GE Healthcare) with a […]
pH 7.5 was used as the running buffer. […]
(SPR reads the build-up and loss of mass on a sensor chip optically.)

In a further experiment the target is T1, BRD2-BD2 (Homo sapiens, UniProt P25440).
T1 construct: human BRD2 (BD1: 65-194; BD2: 347-455); Avi tag (biotinylated); made in house; host or cells: E. coli BL21(DE3)
T1 sequence (P25440 347-455): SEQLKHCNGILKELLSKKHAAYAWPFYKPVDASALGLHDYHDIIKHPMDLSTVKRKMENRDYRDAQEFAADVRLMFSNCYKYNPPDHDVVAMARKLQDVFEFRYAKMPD
Put plainly: 15N-HSQC NMR titration, CSPs fitted to 1:1 binding model. The settings on record: 15N-HSQC titration, simple 1:1 binding model; read-out: binding affinity for BRD2-BD2 from CSP data.

The target in the next experiment is T2, ATAD2B (Homo sapiens, UniProt Q9ULI0).
T2 construct: purchased Eurofins DiscoverX (BROMOscan, BromoMAX)
T2 sequence (Q9ULI0 1-1458): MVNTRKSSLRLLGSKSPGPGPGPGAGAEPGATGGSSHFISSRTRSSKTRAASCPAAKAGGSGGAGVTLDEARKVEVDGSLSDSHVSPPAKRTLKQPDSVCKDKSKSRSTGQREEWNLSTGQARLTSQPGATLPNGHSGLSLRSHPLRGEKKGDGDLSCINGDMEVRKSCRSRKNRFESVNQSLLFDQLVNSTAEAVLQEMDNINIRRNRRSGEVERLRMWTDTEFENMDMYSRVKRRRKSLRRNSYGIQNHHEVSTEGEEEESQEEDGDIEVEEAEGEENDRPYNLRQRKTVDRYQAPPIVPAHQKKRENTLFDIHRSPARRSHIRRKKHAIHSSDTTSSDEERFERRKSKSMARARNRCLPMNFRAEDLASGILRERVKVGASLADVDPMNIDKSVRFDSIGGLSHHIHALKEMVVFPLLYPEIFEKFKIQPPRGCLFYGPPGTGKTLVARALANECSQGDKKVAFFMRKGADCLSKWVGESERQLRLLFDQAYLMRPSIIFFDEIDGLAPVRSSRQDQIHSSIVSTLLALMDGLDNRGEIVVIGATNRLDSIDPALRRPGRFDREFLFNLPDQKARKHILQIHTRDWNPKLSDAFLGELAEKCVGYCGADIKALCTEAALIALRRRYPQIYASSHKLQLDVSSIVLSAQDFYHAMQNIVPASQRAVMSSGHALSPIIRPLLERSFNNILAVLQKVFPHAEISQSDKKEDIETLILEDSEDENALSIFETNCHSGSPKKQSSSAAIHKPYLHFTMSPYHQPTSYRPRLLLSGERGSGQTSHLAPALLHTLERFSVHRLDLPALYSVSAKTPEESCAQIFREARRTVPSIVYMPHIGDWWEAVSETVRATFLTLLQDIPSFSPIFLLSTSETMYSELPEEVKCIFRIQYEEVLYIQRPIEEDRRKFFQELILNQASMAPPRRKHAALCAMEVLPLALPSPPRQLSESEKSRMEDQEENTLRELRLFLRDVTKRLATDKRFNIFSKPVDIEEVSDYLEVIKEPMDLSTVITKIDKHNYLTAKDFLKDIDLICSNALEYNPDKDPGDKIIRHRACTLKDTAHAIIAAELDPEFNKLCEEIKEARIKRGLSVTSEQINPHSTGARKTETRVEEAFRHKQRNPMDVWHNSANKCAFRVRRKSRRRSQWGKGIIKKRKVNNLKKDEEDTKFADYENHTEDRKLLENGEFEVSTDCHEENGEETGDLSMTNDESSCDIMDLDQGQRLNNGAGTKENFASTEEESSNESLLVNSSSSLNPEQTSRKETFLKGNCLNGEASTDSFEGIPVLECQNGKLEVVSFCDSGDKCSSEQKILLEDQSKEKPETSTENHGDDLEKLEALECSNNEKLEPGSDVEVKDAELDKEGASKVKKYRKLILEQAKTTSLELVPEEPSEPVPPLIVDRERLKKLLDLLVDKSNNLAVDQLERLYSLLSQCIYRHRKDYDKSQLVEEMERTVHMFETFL
Put plainly: BROMOscan competition binding assay (BromoMAX, Eurofins DiscoverX). Conditions: for Percent Control ATAD2B: compound concentration 1000 nM, lower percentage control = stronger affinity.

The next experiment concerns the target T3, BRD4(2) (Homo sapiens, UniProt O60885).
T3 construct: BRD4(2); purchased Eurofins DiscoverX (BROMOscan, BromoMAX)
The description is as above. The settings on record: for Percent Control BRD4(2): compound concentration 1000 nM, lower percentage control = stronger affinity.

Experiment [2] has as its system other BD families (non-BET BDs). Briefly: BROMOscan competition binding assay, stated for the non-BET bromodomains together. Details: species or system human. Conditions: peptide concentration 1 μM. An excerpt: Again, remarkable specificity was observed.
The target in another experiment is SMARCA4 (Homo sapiens, UniProt P51532). Conditions: compound concentration 1000 nM; lower percentage control = stronger affinity.
SMARCA4, sequence (P51532 whole entry): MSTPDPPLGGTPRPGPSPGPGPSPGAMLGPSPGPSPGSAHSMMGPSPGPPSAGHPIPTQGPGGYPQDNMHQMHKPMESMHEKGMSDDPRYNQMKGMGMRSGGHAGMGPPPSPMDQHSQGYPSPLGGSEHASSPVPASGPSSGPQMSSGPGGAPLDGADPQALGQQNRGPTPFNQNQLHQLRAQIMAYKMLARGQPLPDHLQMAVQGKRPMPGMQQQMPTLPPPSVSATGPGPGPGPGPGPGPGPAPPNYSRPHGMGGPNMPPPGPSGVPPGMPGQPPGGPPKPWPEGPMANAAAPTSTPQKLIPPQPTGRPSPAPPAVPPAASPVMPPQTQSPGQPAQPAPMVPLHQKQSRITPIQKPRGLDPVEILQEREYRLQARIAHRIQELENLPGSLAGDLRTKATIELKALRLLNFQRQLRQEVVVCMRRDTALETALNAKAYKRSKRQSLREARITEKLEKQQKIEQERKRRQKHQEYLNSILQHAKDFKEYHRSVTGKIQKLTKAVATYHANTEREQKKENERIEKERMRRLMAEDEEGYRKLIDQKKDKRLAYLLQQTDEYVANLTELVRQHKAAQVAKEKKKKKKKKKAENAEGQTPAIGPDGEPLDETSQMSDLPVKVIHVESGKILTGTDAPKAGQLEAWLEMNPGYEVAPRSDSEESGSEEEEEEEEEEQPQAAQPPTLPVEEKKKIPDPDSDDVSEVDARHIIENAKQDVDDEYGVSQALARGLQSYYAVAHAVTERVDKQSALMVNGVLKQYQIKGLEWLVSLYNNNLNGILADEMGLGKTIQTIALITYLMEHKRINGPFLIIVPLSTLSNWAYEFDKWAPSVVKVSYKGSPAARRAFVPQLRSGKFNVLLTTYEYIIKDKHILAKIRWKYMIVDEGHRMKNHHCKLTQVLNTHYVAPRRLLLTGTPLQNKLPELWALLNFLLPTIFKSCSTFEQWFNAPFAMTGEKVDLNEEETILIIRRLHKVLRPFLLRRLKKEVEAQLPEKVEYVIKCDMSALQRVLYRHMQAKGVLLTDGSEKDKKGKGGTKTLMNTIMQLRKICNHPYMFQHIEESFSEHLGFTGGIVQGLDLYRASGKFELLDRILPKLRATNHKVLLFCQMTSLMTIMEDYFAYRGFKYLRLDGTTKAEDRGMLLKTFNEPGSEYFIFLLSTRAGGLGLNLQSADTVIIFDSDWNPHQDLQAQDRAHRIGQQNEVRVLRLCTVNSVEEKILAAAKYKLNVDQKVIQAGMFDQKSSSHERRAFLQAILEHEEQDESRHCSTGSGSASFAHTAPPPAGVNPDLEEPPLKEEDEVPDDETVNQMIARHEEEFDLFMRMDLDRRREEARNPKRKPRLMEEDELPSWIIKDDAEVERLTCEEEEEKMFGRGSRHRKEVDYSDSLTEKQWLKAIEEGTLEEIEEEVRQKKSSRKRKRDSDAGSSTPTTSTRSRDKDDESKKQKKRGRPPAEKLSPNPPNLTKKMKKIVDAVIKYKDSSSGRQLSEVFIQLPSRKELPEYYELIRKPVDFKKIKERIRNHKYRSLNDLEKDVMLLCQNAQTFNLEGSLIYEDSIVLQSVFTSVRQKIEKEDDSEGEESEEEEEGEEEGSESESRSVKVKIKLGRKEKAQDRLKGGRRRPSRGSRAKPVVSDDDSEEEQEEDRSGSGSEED

Where a SMILES comes first, the peptide text is derived from it. Bridges are numbered along the chain shown (N, C = ends).

From the text for BRD2-BD2: (G) Overlaid section of 15N-HSQC spectra of BRD2-BD2 alone (red) or in the presence of one (yellow), two (blue), or three (green) molar equivalents of Signals that undergo the greatest CSPs in the titration are labelled in the protein alone spectrum. Binding curves were derived by tracking the combined 15N/1H chemical shift perturbations of the signals undergoing the greatest CSPs. The data were fitted to a simple 1:1 Langmuir binding isotherm using Graphpad.

For the compound `CC[C@H](C)[C@@H]1NC(=O)[C@H]([C@@H](C)O)NC(=O)[C@H](CCCCN)NC(=O)[C@H](Cc2c[nH]c3ccccc23)NC(=O)CSC[C@@H](C(N)=O)NC(=O)[C@H](CCC(N)=O)NC(=O)[C@H](CCCCNC(C)=O)NC(=O)[C@H]([C@@H](C)O)NC(=O)[C@H](CCCNC(=N)N)NC(=O)[C@H](Cc2c[nH]c3ccccc23)NC(=O)[C@H]([C@@H](C)O)NC(=O)[C@H](CCCCNC(C)=O)NC(=O)CNC(=O)[C@H](CCCCNC(C)=O)NC1=O` [3.1B] ({CH2CO}-WKTIK(Ac)GK(Ac)TWRTK(Ac)QC-NH2; thioether N-14), the “affinity for BRD2-BD1 and BRD4-BD1 within a factor of the affinity for BRD3-BD1” value in experiment [1] lay within 2 to 4 factor. Besides, the Kd at BRD2-BD2 is about 300 µM. The “Percent Control ATAD2B” value at ATAD2B is recorded as 100%. Further, the “Percent Control BRD4(2)” value at BRD4(2) is 99%. For the same compound, in experiment [2], the “binding to other (non-BET) BD families (in words)” value is reported as “almost no binding”. Moreover, at SMARCA4, the “Percent Control SMARCA4” value amounted to 77%.
`CC[C@H](C)[C@@H]1NC(=O)[C@H](Cc2c[nH]c3ccccc23)NC(=O)[C@H](Cc2c[nH]c3ccccc23)NC(=O)CSC[C@@H](C(N)=O)NC(=O)CNC(=O)[C@H](CCCCNC(C)=O)NC(=O)[C@H](CCCCN)NC(=O)[C@H](C(C)C)NC(=O)[C@H](CCCCNC(C)=O)NC(=O)[C@@H]2CCCN2C(=O)[C@H]([C@@H](C)CC)NC1=O` [3.1C] ({CH2CO}-WWIIPK(Ac)VKK(Ac)GC-NH2; thioether N-11): the “affinity for BRD2-BD1 and BRD4-BD1 within a factor of the affinity for BRD3-BD1” value in experiment [1] lay in the range of 2 to 4 factor. Besides, the “Percent Control ATAD2B” value at ATAD2B was determined as 100%. The “Percent Control BRD4(2)” value on BRD4(2) is on record as 13%. Further, the “binding to other (non-BET) BD families (in words)” value in experiment [2] is reported as “almost no binding”. Also, at SMARCA4, the “Percent Control SMARCA4” value is 87%.
On to `CC[C@H](C)[C@H](NC(=O)[C@H](CCCNC(=N)N)NC(=O)[C@H](CCCCNC(C)=O)NC(=O)[C@H](CCCNC(=N)N)NC(=O)[C@H](CC(C)C)NC(=O)[C@@H]1CSCC(=O)N[C@@H](Cc2c[nH]c3ccccc23)C(=O)N[C@@H](CCCCNC(C)=O)C(=O)NCC(=O)N[C@@H](Cc2ccc(O)cc2)C(=O)N[C@@H](CC(C)C)C(=O)N1)C(=O)N[C@@H](CCC(N)=O)C(=O)N[C@@H](CCCNC(=N)N)C(=O)N[C@H](C(=O)N[C@@H](Cc1ccc(O)cc1)C(=O)N[C@@H](CC(N)=O)C(N)=O)[C@@H](C)O` [4.2C] ({CH2CO}-WK(Ac)GYLCLRK(Ac)RIQRTYN-NH2; thioether N-6), for which the percent of control binding at 1 µM at ATAD2B was 100%. Moreover, the remaining binding at 1 µM at BRD4(2) (read-out: Percent Control BRD4(2)) stood at 24%.

The values above are taken from PMC7604503, “Cyclic peptides can engage a single binding pocket through highly divergent modes” (Proceedings of the National Academy of Sciences of the …, 2020).
